Measured values taken from PubChem BioAssay (NCI).
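Tested at 5 concentrations; 48 h exposure; 96-well plates; endpoints linearly interpolated, else capped at highest concentration. TGI is the concentration that stops growth completely.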

Legend:
Test in all cases: NCI anticancer screen, dose series, 48 h
NCI-H460 lung = system: NCI-H460 lung
SF-539 CNS = system: SF-539 CNS
UO-31 renal = system: UO-31 renal
OVCAR-8 ovarian = system: OVCAR-8 ovarian
HOP-92 NSCLC = system: HOP-92 NSCLC
M14 melanoma = system: M14 melanoma
COLO 205 colon = system: COLO 205 colon
SF-268 CNS = system: SF-268 CNS
786-0 renal = system: 786-0 renal
UACC-62 melanoma = system: UACC-62 melanoma
SR leukemia = system: SR leukemia
U251 CNS = system: U251 CNS
NCI-H23 lung = system: NCI-H23 lung
MDA-N = system: MDA-N
T-47D breast = system: T-47D breast
BT-549 breast = system: BT-549 breast
HCT-116 colon = system: HCT-116 colon
SNB-19 CNS = system: SNB-19 CNS
PC-3 prostate = system: PC-3 prostate
SK-OV-3 ovarian = system: SK-OV-3 ovarian
IGROV1 ovarian = system: IGROV1 ovarian
DU-145 prostate = system: DU-145 prostate
TK-10 renal = system: TK-10 renal
SNB-75 CNS = system: SNB-75 CNS
OVCAR-4 ovarian = system: OVCAR-4 ovarian
MALME-3M melanoma = system: MALME-3M melanoma
SF-295 CNS = system: SF-295 CNS
K-562 leukemia = system: K-562 leukemia
SN12C renal = system: SN12C renal
HS 578T breast = system: HS 578T breast
SK-MEL-5 melanoma = system: SK-MEL-5 melanoma
UACC-257 melanoma = system: UACC-257 melanoma
HCT-15 colon = system: HCT-15 colon
HT29 colon = system: HT29 colon
RPMI-8226 leukemia = system: RPMI-8226 leukemia
SW-620 colon = system: SW-620 colon
SK-MEL-28 melanoma = system: SK-MEL-28 melanoma
NCI-H522 lung = system: NCI-H522 lung
MOLT-4 leukemia = system: MOLT-4 leukemia
RXF 393 renal = system: RXF 393 renal
A549 NSCLC = system: A549 NSCLC
NCI/ADR-RES ovarian = system: NCI/ADR-RES ovarian
OVCAR-5 ovarian = system: OVCAR-5 ovarian
KM12 colon = system: KM12 colon
CCRF-CEM leukemia = system: CCRF-CEM leukemia
ACHN renal = system: ACHN renal
MCF7 breast = system: MCF7 breast
HOP-62 NSCLC = system: HOP-62 NSCLC
LOX IMVI melanoma = system: LOX IMVI melanoma
HL-60(TB) leukemia = system: HL-60(TB) leukemia
MDA-MB-231 breast = system: MDA-MB-231 breast
SK-MEL-2 melanoma = system: SK-MEL-2 melanoma
OVCAR-3 ovarian = system: OVCAR-3 ovarian
EKVX NSCLC = system: EKVX NSCLC
MDA-MB-435 = system: MDA-MB-435
HCC-2998 colon = system: HCC-2998 colon

With Cc1ccc(S(=O)(=O)NC(=O)NC(CC(N)=O)C(=O)O)cc1 (stereo not given) the TGI (NCI-H460 lung) was over 100 µM, the TGI (SF-539 CNS) was over 100 µM and the TGI (UO-31 renal) was over 100 µM. It also gave a TGI (OVCAR-8 ovarian) of over 100 µM, a TGI (HOP-92 NSCLC) of over 100 µM and a TGI (M14 melanoma) of over 100 µM. The TGI (COLO 205 colon) was over 100 µM, the TGI (SF-268 CNS) was over 100 µM and the TGI (786-0 renal) was over 100 µM. The TGI (UACC-62 melanoma) was over 100 µM, the TGI (SR leukemia) was over 100 µM and the TGI (U251 CNS) was over 100 µM. The TGI (NCI-H23 lung) was over 100 µM, the TGI (MDA-N) was over 100 µM and the TGI (T-47D breast) was over 100 µM. The TGI (BT-549 breast) was over 100 µM, the TGI (HCT-116 colon) was over 100 µM and the TGI (SNB-19 CNS) was over 100 µM. For the same compound, the TGI (PC-3 prostate) was over 100 µM, the TGI (SK-OV-3 ovarian) was over 100 µM and the TGI (IGROV1 ovarian) was over 100 µM. For the same compound, the TGI (DU-145 prostate) was over 100 µM, the TGI (TK-10 renal) was over 100 µM and the TGI (SNB-75 CNS) was over 100 µM. For the same compound, the TGI (OVCAR-4 ovarian) was over 100 µM, the TGI (MALME-3M melanoma) was over 100 µM and the TGI (SF-295 CNS) was over 100 µM. It also gave a TGI (K-562 leukemia) of over 100 µM, a TGI (SN12C renal) of over 100 µM and a TGI (HS 578T breast) of over 100 µM. For the same compound, the TGI (SK-MEL-5 melanoma) was over 100 µM, the TGI (UACC-257 melanoma) was over 100 µM and the TGI (HCT-15 colon) was over 100 µM. It also gave a TGI (HT29 colon) of over 100 µM, a TGI (RPMI-8226 leukemia) of over 100 µM and a TGI (SW-620 colon) of over 100 µM. For the same compound, the TGI (SK-MEL-28 melanoma) was over 100 µM, the TGI (NCI-H522 lung) was over 100 µM and the TGI (MOLT-4 leukemia) was over 100 µM. The TGI (RXF 393 renal) was over 100 µM, the TGI (A549 NSCLC) was over 100 µM and the TGI (NCI/ADR-RES ovarian) was over 100 µM. It also gave a TGI (OVCAR-5 ovarian) of over 100 µM, a TGI (KM12 colon) of over 100 µM and a TGI (CCRF-CEM leukemia) of over 100 µM. The TGI (ACHN renal) was over 100 µM, the TGI (MCF7 breast) was over 100 µM and the TGI (HOP-62 NSCLC) was over 100 µM. For the same compound, the TGI (LOX IMVI melanoma) was over 100 µM, the TGI (HL-60(TB) leukemia) was over 100 µM and the TGI (MDA-MB-231 breast) was over 100 µM. The TGI (SK-MEL-2 melanoma) was over 100 µM.

For CSCCCN(CCCSC)CCCSC, the TGI (OVCAR-3 ovarian) was over 100 µM, the TGI (NCI-H460 lung) was over 100 µM and the TGI (SF-539 CNS) was over 100 µM. It also gave a TGI (UO-31 renal) of over 100 µM, a TGI (OVCAR-8 ovarian) of over 100 µM and a TGI (M14 melanoma) of over 100 µM. It also gave a TGI (COLO 205 colon) of over 100 µM, a TGI (SF-268 CNS) of over 100 µM and a TGI (786-0 renal) of over 100 µM. It also gave a TGI (UACC-62 melanoma) of over 100 µM, a TGI (SR leukemia) of 58.8 µM and a TGI (U251 CNS) of over 100 µM. For the same compound, the TGI (NCI-H23 lung) was over 100 µM, the TGI (EKVX NSCLC) was over 100 µM and the TGI (MDA-N) was over 100 µM. The TGI (T-47D breast) was over 100 µM, the TGI (BT-549 breast) was over 100 µM and the TGI (HCT-116 colon) was over 100 µM. It also gave a TGI (SNB-19 CNS) of over 100 µM, a TGI (MDA-MB-435) of over 100 µM and a TGI (PC-3 prostate) of over 100 µM. It also gave a TGI (SK-OV-3 ovarian) of over 100 µM, a TGI (IGROV1 ovarian) of over 100 µM and a TGI (DU-145 prostate) of over 100 µM. For the same compound, the TGI (SNB-75 CNS) was over 100 µM, the TGI (OVCAR-4 ovarian) was over 100 µM and the TGI (SF-295 CNS) was over 100 µM. The TGI (K-562 leukemia) was over 100 µM, the TGI (SN12C renal) was over 100 µM and the TGI (SK-MEL-5 melanoma) was over 100 µM. The TGI (UACC-257 melanoma) was over 100 µM, the TGI (HCT-15 colon) was over 100 µM and the TGI (HT29 colon) was over 100 µM. It also gave a TGI (SW-620 colon) of over 100 µM, a TGI (SK-MEL-28 melanoma) of over 100 µM and a TGI (NCI-H522 lung) of over 100 µM. The TGI (MOLT-4 leukemia) was over 100 µM, the TGI (A549 NSCLC) was over 100 µM and the TGI (NCI/ADR-RES ovarian) was over 100 µM. It also gave a TGI (OVCAR-5 ovarian) of over 100 µM, a TGI (KM12 colon) of over 100 µM and a TGI (CCRF-CEM leukemia) of over 100 µM. The TGI (MCF7 breast) was over 100 µM, the TGI (HOP-62 NSCLC) was over 100 µM and the TGI (LOX IMVI melanoma) was over 100 µM. The TGI (HL-60(TB) leukemia) was 50.7 µM, the TGI (HCC-2998 colon) was over 100 µM and the TGI (MDA-MB-231 breast) was over 100 µM.
